Patent publication US20230314435A1, “MARKER OF CALCIUM-OVERLOAD-MEDIATED NEURONAL DEATH AND APPLICATION THEREOF” (Capital Medical University, priority 2022, published 2023)

How the values were obtained:
[1] = tested on: Hela cells; experiment: Western blot of autophagy markers (autophagy flux) in Hela wild-type and TLK2 KO cells; type: cell-based; conditions: 6 hours
Description: Hela cells were collected, and were added in an RIPA lysis buffer added with a protease inhibitor and PMSF (50 mM Tris, 150 mM NaCl, 1% Triton X-100, 1% sodium deoxytholate and 0.1% SDS) for lysis on ice for 30 min. Subsequently, ultrasonication was performed on ice under the conditions of 40 w 3 sec on/3 sec off for 1 minute, centrifugation was performed at 12,000 rpm in a centrifugal machine at 4° C. for 15 min, a supernatant was collected, diluted by an SDS sample-loading buffer and stewed at 95° C. for 5 min. […] of a protein sample was loaded, and gel electrophoresis was performed under a constant voltage of 80 V When bromophenol blue reached the bottom, membrane transfer was performed overnight at a constant current of 130 mA to transfer the protein from a gel onto a PVDF membrane. The membrane was blocked with 5% skim milk at room temperature for 1 hour, and was washed with TBST for three times, with 5 min for each time. A primary antibody properly diluted was incubated overnight at 4° C., and washed with TBST for three times, with 5 min for each time. An HRP secondary antibody was diluted in 1:10000, incubated at room temperature for 1 hour, and washed with TBST for three times, with 5 min for each time. Western blot was developed by ECL chemiluminescence.
In TLK2 KO cells, the LC3-II/LC3-I ratio was increased, and a P62 protein level was reduced (FIG. 14). […] The autophagy is a dynamic process, for which a level may be elevated accurately through a process of testing an autophagy flux. By using a drug to activate or block an autophagy pathway, the autophagy flux smoothness could be evaluated.
Raparnycin (Rapa) was used for activating the autophagy, and bafilomycin A1 (Baf A1) was used for inhibiting the autophagy. Cells were treated with Raparnycin (Rapa, 40 nM) and bafilomycin A1 (Baf A1, 100 nM) for 6 hours, respectively. […] This indicated smooth autophagy flux in the TLK2 KO cells.

[2] = tested on: cell calcium-overload model; experiment: Drug screening in a cell calcium-overload model (LDH assay); type: cell-based; conditions: screening of micro-molecule library, PMZ as positive control
Excerpt: The culture solution was removed, and the cells were washed with PBS. A fresh culture solution was used (it was recommended to use a low serum culture solution containing 1% serum or a suitable serum-free culture solution), and various culture wells were divided into the following groups: cell-free culture solution wells (background blank control wells), control cell wells not treated with a drug (sample control wells), cell wells used for subsequent lysis, not treated with a drug (maximum sample enzyme activity control wells), and drug-treated cell wells (drug-treated sample wells), and these wells were labeled properly.
Proper drug treatment was provided according to experiment requirements, for example, about 0-10 μL of a specific drug was added for stimulation; different concentrations and different treatment time could be set, and suitable drug solvent was required to be added to the control wells for continued culture as routine against the control. At 1 hour before a predetermined testing time point, the cell culture plate was taken out of a cell incubator, an LDH release reagent provided by a reagent kit was added to the “maximum sample enzyme activity control wells”, and the addition amount was equal to 10% of the volume of the original culture solution. After the addition of the LDH release reagent, the cells were blown repeatedly for several times for uniform mixing, and then were incubated in the cell incubator.
After the predetermined time expired, the cell culture plate was centrifuged with a multi-well plate centrifugal machine at 400 g for 5 min. 120 μL of a supernatant was respectively taken from each well and added to corresponding wells of a new 96-well plate for subsequent sample testing. 60 μL of an LDH test working solution was respectively added to each well. […] Then, absorbance was measured at 490 nm. […] Calculation was performed (the background blank control well absorbance was deducted from the measured absorbance of each group). […]

[3] = tested on: TLK2; experiment: Purified GST-TLK2 incubated with lysis buffer of ionomycin-treated (calcium-overload) Hela cells: Commassie staining, phos-tag SDS-PAGE, mass spectrometry; type: biochemical
Description: TLK2 cDNA was cloned to a PGEX-6P-1 vector containing a GST tag, a recombinant plasmid was expressed into BL21 chemical competent cells for induced expression at 180 rpm at 20° C. for 20 hours under an induction condition of 0.5 mM IPTG. GST-TLK2 was purified according to the standard steps of Beyotime GST tag protein purification kit. Hela cells were treated with 17 μM ionomycin for 3 hours, and when a cell density reached 70%, the cells were collected. Lysis was performed in a lysis buffer (10 mM Tris, 150 mM NaCl, 2 mM EDTA and 0.5% TritonX-100). Centrifugation was performed at 12,000 rmp at 4° C. for 15 min, and a supernatant was collected. 3 μg of a GST-TLK2 purified protein and 200 μg of a cell lysis buffer were mixed, and placed overnight in a vertical shaker at 4° C. Subsequently, Glutathione. Sepharose 4B condensate beads were added, and rotation proceeded at room temperature for 1 hour. The mixture was washed with WB and IP lysis buffers for 6 times, each of which the mixture was centrifugated in a centrifugal machine at 2,000 rmp at 4° C. for 5 min. The product was diluted by an SDS sample-loading buffer and stewed at 95° C. for 5 min, or a TLK2 protein was cleaved overnight by PreScission Protease at 4° C. The final result was obtained by Commassie staining.
The purified TLK2 protein was incubated with a cell lysis buffer (inducing calcium overload) treated with ionomycin or a normal cell lysis buffer. […] Similar change also appeared after the TLK2 protein was incubated with a TLK2 KO cell lysis buffer treated with the ionomycin.
TLK2 cDNA was cloned to a PGEX-6P-1 vector containing a GST tag, a recombinant plasmid was expressed into BL21 chemical competent cells for induced expression at 180 rpm at 20° C. for 20 hours under an induction condition of 0.5 mM IPTG. GST-TLK2 was purified according to the standard steps of Beyotime GST tag protein purification kit. […]
Phos-tag was a functional molecule which could be in specific binding with phosphate ions. […] The content of the phosphorylated protein could be analyzed by the change in the migration rate. […]

[4] = tested on: TLK2; experiment: In-vitro kinase experiment (ATP consumption, MBP substrate); type: biochemical; conditions: TLK2+Ionomycin group compared with normal treatment group
Description: 1 μL of ATP (0.2 mM), 1 μg of a TLK2 purified protein and 20 μg of a substrate were added to a 50 μL reaction system, the remaining volume was supplemented with a kinase buffer (10 mM Tris pH 7.5, 50 mM KCL, 10 mM MgCl2 and 1 mM DTT), and a reaction was performed at room temperature for 15 min. An MBP protein was taken as a positive control substrate, and a PGK1 protein was taken as a negative control substrate. 50 ul of a Kinase-Lumi™ superstrong chemiluminescence kinase assay reagent was added and uniformly mixed to have a reaction in the dark at room temperature for 10 min. Then, a multifunctional microplate reader was used for chemiluminescence testing.
TLK2 kinase activity was verified by an in-vitro kinase experiment. In the in-vitro kinase experiment, a myelin basic protein (MBP) could be used as a substrate for multiple kinases, a group to which a TLK2 (No TLK2) protein was not added was taken as a control, and in a normal treatment (TLK2+Control) and an ionomycin treatment group (TLK2+Ionomycin), the same amount of the TLK2 protein reacted with the same amount of the MBP protein. A reduced ATP level reflected the TLK2 kinase activity.

[5] = wild-type Hela cells, Rapa 40 nM or Baf A1 100 nM
[6] = lysis buffer of Hela cells treated with 17 μM ionomycin for 3 hours

Structure (SMILES) | LC3-II/LC3-I ratio [1, 5] | P62 protein level [1, 5] | calcium-overload injury inhibition activity [2] | other results
CO/C1=C\C(C)=C\[C@@H](C)[C@@H](O)[C@@H](C)C/C(C)=C/C=C/[C@H](OC)[C@@H]([C@@H](C)[C@@H](O)[C@H](C)[C@@]2(O)C[C@@H](O)[C@H](C)[C@@H](C(C)C)O2)OC1=O [Baf A1, bafilomycin A1] | elevated | elevated | – | autophagy activated by TLK2 KO ([1]; TLK2 KO Hela cells, Baf A1 100 nM): blocked
O=C(O[C@@H]1Cc2c(O)cc(O)cc2O[C@@H]1c1cc(O)c(O)c(O)c1)c1cc(O)c(O)c(O)c1 [Epigallocatechin Gallate] | – | – | had calcium-overload injury inhibition activity | –
CO[C@H]1C[C@@H]2CC[C@@H](C)[C@@](O)(O2)C(=O)C(=O)N2CCCC[C@H]2C(=O)O[C@H]([C@H](C)C[C@@H]2CC[C@@H](O)[C@H](OC)C2)CC(=O)[C@H](C)/C=C(\C)[C@@H](O)[C@@H](OC)C(=O)[C@H](C)C[C@H](C)/C=C/C=C/C=C/1C [Rapa, Raparnycin] | increased | reduced | – | P62 protein level ([1]; TLK2 KO Hela cells, Rapa 40 nM): further reduce
CC[C@@H]1C(=O)N(C)c2cnc(Nc3ccc(C(=O)N[C@H]4CC[C@H](N5CCN(CC6CC6)CC5)CC4)cc3OC)nc2N1C(C)C [Volasertib] | – | – | had calcium-overload injury inhibition activity | –
O=c1[nH]c(C2CCCN2)nc2c1oc1ccc(Cl)cc12 (stereo not shown) [XL413] | – | – | had calcium-overload injury inhibition activity | –
C[C@H](CCC(=O)O)C[C@H](C)C[C@H](C)C(=O)/C=C(\O)[C@H](C)C[C@H](C)C/C=C/[C@@H](C)[C@@H](O)[C@@H](C)[C@@H](O)C[C@@H]1CC[C@@](C)([C@H]2CC[C@@](C)([C@@H](C)O)O2)O1 [ionomycin, Ionomycin] | – | – | – | GST-TLK2 protein band (Commassie staining) [3, 6]: moved upward; additional TLK2 phosphorylation sites compared with the control group (mass spectrometry) [3, 6]: 15; TLK2 phosphorylation (phos-tag SDS-PAGE) ([3]; normal and TLK2 KO cell lysis buffer after 17 μM ionomycin, 3 hours): could promote TLK2 phosphorylation; TLK2 kinase activity (ATP consumption) [4]: could consume much ATP
